{"source": "patent US20220401619A1", "about": "“A COLLAGEN SCAFFOLD” (ROYAL COLLEGE OF SURGEONS IN IRELAND, priority 2019, published 2022)", "assay": "Antibiotic release profile from scaffolds over 60 days", "assay_type": "physicochemical", "from_the_text": "As shown in FIG. 3(A), in the dual-layer scaffold structure incorporating crosslinked and directly incorporated antibiotic produced as described above, the porous scaffold structure necessary for efficient tissue regeneration was maintained. In addition, the porosity (>98%) and mean pore size, essential for optimal proliferation and differentiation of osteoblasts during bone regeneration, were not compromised after the loading of the drug into the collagen structure. Depending on the incorporation method, different release kinetics of the antibiotic from the materials were obtained. […] At day 10, approximately 90% of the teicoplanin was released when it was directly loaded into the slurry during the CHA scaffold fabrication."}
{"substance": "teicoplanin", "values": [{"measurement": "teicoplanin released", "setting": "day 10, directly loaded into the slurry during CHA scaffold fabrication", "result": "approximately 90%"}, {"measurement": "teicoplanin released", "setting": "day 60, chemically attached (crosslinked) to scaffold", "result": "approximately 11%"}]}
